Experiments:
Assay in all cases: In vitro antibacterial evaluation: minimum inhibitory concentration (MIC), broth dilution method
Assay type in all cases: cell-based
Enterococcus sp. = conditions: 18 hours at 35° C.
Method in brief: (§1)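 Values are minimum inhibitory concentrations, meaning the smallest antibiotic concentration that stops growth of the organism. They come from broth dilution in Muller-Hinton II […] per NCCLS guidance (M7-A2), using 5×10^5 CFU/mL and concentrations from 64 to 0.06 μg/mL.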

Escherichia coli = conditions: 18 hours at 35° C.
Method in brief: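 MIC read as lowest drug level preventing visible growth. Organisms at 5×10^5 CFU/mL were exposed to a 64-0.06 μg/mL dilution series in Muller-Hinton II […] following NCCLS broth dilution standard M7-A2.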

Staphylococcus sp. = conditions: for MIC Staphylococcus aureus (ATCC 29213): strain ATCC 29213; for MIC Staphylococcus aureus (GC 1131): strain GC 1131; for MIC Staphylococcus aureus (GC 3051): strain GC 3051; for MIC Staphylococcus aureus (GC 3053): strain GC 3053; for MIC Staphylococcus aureus (GC 4541): strain GC 4541; for MIC Staphylococcus aureus (GC 4542): strain GC 4542; for MIC Staphylococcus aureus-SMITH (GC 4543): strain GC 4543; for MIC Staphylococcus aureus (GC 4544): strain GC 4544; for MIC Staphylococcus aureus (GC 4545): strain GC 4545; for MIC Staphylococcus haemolyticus (GC 4546): strain GC 4546; for MIC Coagulase Negative Staphylococcus (GC 4547): strain GC 4547; for MIC Coagulase Negative Staphylococcus (GC 4548): strain GC 4548; for MIC Coagulase Negative Staphylococcus (GC 4549): strain GC 4549; for MIC Coagulase Negative Staphylococcus (GC 4551): strain GC 4551; for MIC Coagulase Negative Staphylococcus (GC 6257): strain GC 6257
Method in brief: as §1

Streptococcus sp. = conditions: 18 hours at 35° C.
Method in brief: as §1

[1] = Enterococcus faecalis (ATCC 29212)
[2] = Enterococcus faecalis (GC 2242)
[3] = Enterococcus faecalis (GC 2691)
[4] = Enterococcus faecalis (GC 3059)
[5] = Enterococcus faecalis (GC 4552)
[6] = Enterococcus faecalis (GC 4553)
[7] = Enterococcus faecalis (GC 4554)
[8] = Enterococcus faecalis (GC 6189)
[9] = broth dilution, inoculum 5×10^5 CFU/mL
[10] = Streptococcus agalactiae (GC 4564)
[11] = Streptococcus pneumoniae (ATCC 6301)
[12] = Streptococcus pneumoniae (GC 1894)
[13] = Streptococcus pneumoniae (GC 4565)
[14] = Streptococcus pyogenes (GC 4563)

CC(C)=CCCC(C)=CCCC(C)=CCOc1cccc(C2OCC3OC(OC4C(CO)OC(Oc5ccc(CC6NC(=O)C(C(C)c7ccccc7)NC(=O)CNC(=O)C(CO)NC(=O)C(C(O)C7CNC(=N)N7C7OC(CO)C(O)C(O)C7O)NC(=O)C(C(O)C7CNC(=N)N7)NC6=O)cc5)C(O)C4O)C(O)C(O)C3O2)c1 (centres unmarked) [Example 185]
16 µg/mL: MIC Streptococcus pyogenes (GC 4563) (Streptococcus sp.; [14]) | MIC Streptococcus pyogenes (GC 4563) (Streptococcus sp.; [9])
32 µg/mL: MIC Enterococcus faecalis (GC 4553) (Enterococcus sp.; [6]) | MIC Enterococcus faecium (GC 2243) (Enterococcus sp.; Enterococcus faecium (GC 2243)) | MIC Enterococcus faecalis (GC 4553) (Enterococcus sp.; [9]) | MIC Enterococcus faecium (GC 2243) (Enterococcus sp.; [9])
64 µg/mL: MIC Enterococcus avium (GC 4558) (Enterococcus sp.; Enterococcus avium (GC 4558)) | MIC Enterococcus avium (GC 4558) (Enterococcus sp.; [9])
>64 µg/mL: MIC Enterococcus faecalis (ATCC 29212) (Enterococcus sp.; [1]) | MIC Enterococcus faecalis (GC 2242) (Enterococcus sp.; [2]) | MIC Enterococcus faecalis (GC 2691) (Enterococcus sp.; [3]) | MIC Enterococcus faecalis (GC 3059) (Enterococcus sp.; [4]) | MIC Enterococcus faecalis (GC 4552) (Enterococcus sp.; [5]) | MIC Enterococcus faecalis (GC 4554) (Enterococcus sp.; [7]) | MIC Enterococcus faecalis (GC 6189) (Enterococcus sp.; [8]) | MIC Enterococcus faecium (GC 4556) (Enterococcus sp.; Enterococcus faecium (GC 4556)) | MIC Enterococcus faecium (GC 4557) (Enterococcus sp.; Enterococcus faecium (GC 4557)) | MIC Enterococcus faecalis (ATCC 29212) (Enterococcus sp.; [9]) | MIC Enterococcus faecalis (GC 2242) (Enterococcus sp.; [9]) | MIC Enterococcus faecalis (GC 2691) (Enterococcus sp.; [9]) | MIC Enterococcus faecalis (GC 3059) (Enterococcus sp.; [9]) | MIC Enterococcus faecalis (GC 4552) (Enterococcus sp.; [9]) | MIC Enterococcus faecalis (GC 4554) (Enterococcus sp.; [9]) | MIC Enterococcus faecalis (GC 6189) (Enterococcus sp.; [9]) | MIC Enterococcus faecium (GC 4556) (Enterococcus sp.; [9]) | MIC Enterococcus faecium (GC 4557) (Enterococcus sp.; [9]) | MIC Escherichia coli (ATCC 25922) (Escherichia coli) | MIC Escherichia coli (GC 4559) (Escherichia coli) | MIC Escherichia coli (GC 4560) (Escherichia coli) | MIC Staphylococcus aureus (ATCC 29213) (Staphylococcus sp.) | MIC Staphylococcus aureus (GC 1131) (Staphylococcus sp.) | MIC Staphylococcus aureus (GC 3051) (Staphylococcus sp.) | MIC Staphylococcus aureus (GC 3053) (Staphylococcus sp.) | MIC Staphylococcus aureus (GC 4541) (Staphylococcus sp.) | MIC Staphylococcus aureus (GC 4542) (Staphylococcus sp.) | MIC Staphylococcus aureus-SMITH (GC 4543) (Staphylococcus sp.) | MIC Staphylococcus aureus (GC 4544) (Staphylococcus sp.) | MIC Staphylococcus aureus (GC 4545) (Staphylococcus sp.) | MIC Staphylococcus haemolyticus (GC 4546) (Staphylococcus sp.) | MIC Coagulase Negative Staphylococcus (GC 4547) (Staphylococcus sp.) | MIC Coagulase Negative Staphylococcus (GC 4548) (Staphylococcus sp.) | MIC Coagulase Negative Staphylococcus (GC 4549) (Staphylococcus sp.) | MIC Coagulase Negative Staphylococcus (GC 4551) (Staphylococcus sp.) | MIC Coagulase Negative Staphylococcus (GC 6257) (Staphylococcus sp.)
0.12 µg/mL: MIC Streptococcus pneumoniae (ATCC 6301) (Streptococcus sp.; [11]) | MIC Streptococcus pneumoniae (ATCC 6301) (Streptococcus sp.; [9])
1 µg/mL: MIC Streptococcus agalactiae (GC 4564) (Streptococcus sp.; [10]) | MIC Streptococcus agalactiae (GC 4564) (Streptococcus sp.; [9])
<0.06 µg/mL: MIC Streptococcus pneumoniae (GC 1894) (Streptococcus sp.; [12]) | MIC Streptococcus pneumoniae (GC 4565) (Streptococcus sp.; [13]) | MIC Streptococcus pneumoniae (GC 1894) (Streptococcus sp.; [9]) | MIC Streptococcus pneumoniae (GC 4565) (Streptococcus sp.; [9])

CC(c1ccccc1)C1NC(=O)CNC(=O)C(CO)NC(=O)C(C(O)C2CNC(=N)N2C2OC(CO)C(O)C(O)C2O)NC(=O)C(C(O)C2CNC(=N)N2)NC(=O)C(Cc2ccc(OC3OC(CO)C(OC4OC5COC(c6ccc(C(=O)c7ccc(I)cc7)cc6)OC5C(O)C4O)C(O)C3O)cc2)NC1=O (centres unmarked) [Example 186]
0.5 µg/mL: MIC Coagulase Negative Staphylococcus (GC 6257) (Staphylococcus sp.)
0.25 µg/mL: MIC Streptococcus pyogenes (GC 4563) (Streptococcus sp.; [14]) | MIC Streptococcus pyogenes (GC 4563) (Streptococcus sp.; [9])
64 µg/mL: MIC Escherichia coli (ATCC 25922) (Escherichia coli) | MIC Escherichia coli (GC 4559) (Escherichia coli)
4 µg/mL: MIC Escherichia coli (GC 4560) (Escherichia coli)
1 µg/mL: MIC Enterococcus faecalis (GC 6189) (Enterococcus sp.; [8]) | MIC Enterococcus faecalis (GC 6189) (Enterococcus sp.; [9]) | MIC Staphylococcus aureus (GC 4542) (Staphylococcus sp.) | MIC Staphylococcus haemolyticus (GC 4546) (Staphylococcus sp.) | MIC Coagulase Negative Staphylococcus (GC 4548) (Staphylococcus sp.) | MIC Coagulase Negative Staphylococcus (GC 4549) (Staphylococcus sp.)
2 µg/mL: MIC Enterococcus avium (GC 4558) (Enterococcus sp.; Enterococcus avium (GC 4558)) | MIC Enterococcus faecalis (ATCC 29212) (Enterococcus sp.; [1]) | MIC Enterococcus faecalis (GC 2242) (Enterococcus sp.; [2]) | MIC Enterococcus faecalis (GC 2691) (Enterococcus sp.; [3]) | MIC Enterococcus faecalis (GC 3059) (Enterococcus sp.; [4]) | MIC Enterococcus faecalis (GC 4552) (Enterococcus sp.; [5]) | MIC Enterococcus faecalis (GC 4553) (Enterococcus sp.; [6]) | MIC Enterococcus faecalis (GC 4554) (Enterococcus sp.; [7]) | MIC Enterococcus faecium (GC 2243) (Enterococcus sp.; Enterococcus faecium (GC 2243)) | MIC Enterococcus faecium (GC 4556) (Enterococcus sp.; Enterococcus faecium (GC 4556)) | MIC Enterococcus faecium (GC 4557) (Enterococcus sp.; Enterococcus faecium (GC 4557)) | MIC Enterococcus avium (GC 4558) (Enterococcus sp.; [9]) | MIC Enterococcus faecalis (ATCC 29212) (Enterococcus sp.; [9]) | MIC Enterococcus faecalis (GC 2242) (Enterococcus sp.; [9]) | MIC Enterococcus faecalis (GC 2691) (Enterococcus sp.; [9]) | MIC Enterococcus faecalis (GC 3059) (Enterococcus sp.; [9]) | MIC Enterococcus faecalis (GC 4552) (Enterococcus sp.; [9]) | MIC Enterococcus faecalis (GC 4553) (Enterococcus sp.; [9]) | MIC Enterococcus faecalis (GC 4554) (Enterococcus sp.; [9]) | MIC Enterococcus faecium (GC 2243) (Enterococcus sp.; [9]) | MIC Enterococcus faecium (GC 4556) (Enterococcus sp.; [9]) | MIC Enterococcus faecium (GC 4557) (Enterococcus sp.; [9]) | MIC Staphylococcus aureus (ATCC 29213) (Staphylococcus sp.) | MIC Staphylococcus aureus (GC 1131) (Staphylococcus sp.) | MIC Staphylococcus aureus (GC 3051) (Staphylococcus sp.) | MIC Staphylococcus aureus (GC 3053) (Staphylococcus sp.) | MIC Staphylococcus aureus (GC 4541) (Staphylococcus sp.) | MIC Staphylococcus aureus-SMITH (GC 4543) (Staphylococcus sp.) | MIC Staphylococcus aureus (GC 4544) (Staphylococcus sp.) | MIC Staphylococcus aureus (GC 4545) (Staphylococcus sp.) | MIC Coagulase Negative Staphylococcus (GC 4547) (Staphylococcus sp.) | MIC Coagulase Negative Staphylococcus (GC 4551) (Staphylococcus sp.)
<0.06 µg/mL: MIC Streptococcus agalactiae (GC 4564) (Streptococcus sp.; [10]) | MIC Streptococcus pneumoniae (ATCC 6301) (Streptococcus sp.; [11]) | MIC Streptococcus pneumoniae (GC 1894) (Streptococcus sp.; [12]) | MIC Streptococcus pneumoniae (GC 4565) (Streptococcus sp.; [13]) | MIC Streptococcus agalactiae (GC 4564) (Streptococcus sp.; [9]) | MIC Streptococcus pneumoniae (ATCC 6301) (Streptococcus sp.; [9]) | MIC Streptococcus pneumoniae (GC 1894) (Streptococcus sp.; [9]) | MIC Streptococcus pneumoniae (GC 4565) (Streptococcus sp.; [9])

From patent US8247211B2, “Glycopeptide antibiotics” (American Cyanamid Company, priority 2001, dated 2012)
